The values below come from US20030073618A1, “Compounds comprising disulfide-containing peptides and nitrogenous bases, and medical uses thereof” (priority 2001, published 2003).

Where two headings read alike, the source gives them in different places. Marks after values point to notes of the source that are not given here.

Assay [1] deals with white rats with DMNA-induced liver cirrhosis. The assay is described as follows: Experimental dimethylnitrosamine (DMNA)-induced liver cirrhosis in rats. The assay is classed as in vivo. As to the method:
The method of Jezequel, A. M. et al. was used to induce liver cirrhosis in the rats. (Dimethylnitrosamine-induced cirrhosis. Evidence for an immunological mechanism. J. […] DMNA was dissolved by normal saline. To obtain considerable cirrhosis 4 such injection cycles were sufficient. For morphologic examination after narcotized euthanasia samples of liver tissue from central and right side lobes were taken. The liver samples were fixated by mixture of formalin, alcohol and acetic acid. […] The van-Gison stained samples where collagen fibers had red color were used for the study. […] By number of pixels forming the selected objects a relative square occupied by developed collagen (connective tissue) in the liver tissue was calculated. The measurement results were statistically processed. The difference significance between mean samples using the Student criterion with significance level of p=0.05. The morphological alterations were assessed on the samples with blind marking reducing risk of aggravation of the study results. The pathologic process and agent efficacy were assessed by clinical signs (weight, appearance, ascites, motional activity, death) as well as morphologic ones after animal necropsy with following morphologic liver sample examination. After development of pathologic process, i.e. in 4 weeks after the DMNA introduction onset, all animals were randomized in 4 groups of 12 animals in each. […] The agents were introduced every other day intramuscularly, in femur muscle.

In the next assay the test system is ATP-ase/helicase. Briefly: ATP-ase/helicase activity in lysate of donor lymphocyte nuclei.
Assay [2] concerns ATP-ase/helicase (NS3 of hepatitis C virus).
A further assay deals with hepatitis C virus (HCV). Briefly: Efficacy study in chronic viral hepatitis C, 74 patients (Tables 54-55).
The next assay has as its system hepatitis B virus (HBV). The assay is described as follows: Efficacy study in acute viral hepatitis B with severe course, 35 patients (Tables 50-53). The assay is classed as in vivo, human. The text has this: State of patient upon completion of treatment.
Setting [3] is: 100 μg/ml, 100 pg M13 phage DNA.
Setting [4] is: 100 μg/ml, 200 pg M13 phage DNA.
Where [5] appears, read: compared with GSSG-I and GSSG-IMP.
[6] abbreviates: 100 μg/ml, 500 pg M13 phage DNA.
[7] abbreviates: 100 μg/ml, 800 pg M13 phage DNA.
[8] abbreviates: month 2 (1 month after treatment).
The mark [9] stands for this setting: month 4 (3 months after treatment).

Turning to `C[S+](CC[C@H](N)C(=O)[O-])C[C@H]1O[C@@H](n2cnc3c(N)ncnc32)[C@H](O)[C@@H]1O` (stereo partly drawn) [Heptral, S-adenosyl-methionine], the Rat weight in assay [1] (1 treatment week) is recorded as 191.0 g; in assay [1] (3 treatment weeks), 212 g; in assay [1] (6 treatment weeks), 232 g. Also, the results for the “Relative square of the connective tissue in a liver section” value in assay [1] (3 weeks after cirrhosis modeling completion) and in assay [1] (6 weeks after cirrhosis modeling completion) were 8.215 ± 0.751% and 7.781 ± 0.943 %, respectively. Moreover, the “Collagen amount lowered comparing to the normal saline control (times)” value stood at 1.7 times in assay [1] (6-week dosing) and 1.1 times in assay [1] (treatment for 3 weeks). The “Decrease of liver fibrosis-formation rate” value in assay [1] (comparison agent) amounted to 35%.
Take `N[C@@H](CCC(=O)N[C@@H](CSSC[C@H](NC(=O)CC[C@H](NP(=O)(O)OC[C@H]1O[C@@H](n2ccc(=O)[nH]c2=O)[C@H](O)[C@@H]1O)C(=O)O)C(=O)NCC(=O)[O-])C(=O)NCC(=O)[O-])C(=O)O.[Na+].[Na+]` [GSSG-UMP]: the “Radioactive fraction, high-molecular” value in the assay on ATP-ase/helicase (10 μg/ml, 5 pg M13 phage DNA) is reported as 16 ± 1/; with ATP-ase/helicase (10 μg/ml, 20 pg M13 phage DNA) it was 20 ± 2/; with ATP-ase/helicase (10 μg/ml, 50 pg M13 phage DNA) it was 41 ± 32/; with ATP-ase/helicase (10 μg/ml, 100 pg M13 phage DNA), 72 ± 4.5/; with ATP-ase/helicase (10 μg/ml, 200 pg M13 phage DNA), 92 ± 7/; with ATP-ase/helicase (50 μg/ml, 5 pg M13 phage DNA), 32.5 ± 1.5*/. The “Radioactive fraction, high-molecular” value is listed as 37.5 ± 2.5*/ with ATP-ase/helicase (50 μg/ml, 20 pg M13 phage DNA); 59 ± 5*/ with ATP-ase/helicase (50 μg/ml, 50 pg M13 phage DNA); 80 ± 6/ in the assay with ATP-ase/helicase (50 μg/ml, 100 pg M13 phage DNA); 90.5 ± 6/ in the assay with ATP-ase/helicase (50 μg/ml, 200 pg M13 phage DNA); 42 ± 3*/ in the assay on ATP-ase/helicase (100 μg/ml, 5 pg M13 phage DNA); 49.5 ± 4*/ in the assay with ATP-ase/helicase (100 μg/ml, 20 pg M13 phage DNA). Moreover, the “Radioactive fraction, high-molecular” value in the assay with ATP-ase/helicase (100 μg/ml, 50 pg M13 phage DNA) is reported as 67 ± 5*/; in the assay with ATP-ase/helicase (setting [3]) it was 84 ± 6.5/; with ATP-ase/helicase (setting [4]), 92.5 ± 8/; in assay [2] (10 μg/ml, 20 pg M13 phage DNA), 16 ± 1/; in assay [2] (10 μg/ml, 50 pg M13 phage DNA), 17.5 ± 1.5/; in assay [2] (10 μg/ml, 200 pg M13 phage DNA), 45 ± 4/. Besides, the “Radioactive fraction, high-molecular” value in assay [2] (10 μg/ml, 500 pg M13 phage DNA) was 73.5 ± 5.5/; in assay [2] (10 μg/ml, 800 pg M13 phage DNA), 92.0 ± 5/; in assay [2] (50 μg/ml, 20 pg M13 phage DNA) it was 32 ± 2.5*/; in assay [2] (50 μg/ml, 50 pg M13 phage DNA) it was 34 ± 3*/; in assay [2] (50 μg/ml, 200 pg M13 phage DNA), 51 ± 4/; in assay [2] (50 μg/ml, 500 pg M13 phage DNA), 74 ± 5/. Moreover, the “Radioactive fraction, high-molecular” value was 92.5 ± 6.5/ in assay [2] (50 μg/ml, 800 pg M13 phage DNA); 36 ± 2*/ in assay [2] (100 μg/ml, 20 pg M13 phage DNA); 41 ± 4*/ in assay [2] (100 μg/ml, 50 pg M13 phage DNA); 57.5 ± 7.5*/ in assay [2] (setting [4]); 75.5 ± 6.5/ in assay [2] (setting [6]); 92.5 ± 6.5/ in assay [2] (setting [7]). In addition, the “Radioactive fraction, low-molecular” value in the assay on ATP-ase/helicase (10 μg/ml, 5 pg M13 phage DNA) is listed as 84 ± 5; in the assay on ATP-ase/helicase (10 μg/ml, 20 pg M13 phage DNA), 80 ± 5; in the assay with ATP-ase/helicase (10 μg/ml, 50 pg M13 phage DNA), 59 ± 5; with ATP-ase/helicase (10 μg/ml, 100 pg M13 phage DNA), 28 ± 2.5; with ATP-ase/helicase (10 μg/ml, 200 pg M13 phage DNA) it was 8 ± 2; in the assay with ATP-ase/helicase (50 μg/ml, 5 pg M13 phage DNA), 67.5 ± 5.5. Further, the “Radioactive fraction, low-molecular” value is listed as 62.5 ± 5.5 in the assay on ATP-ase/helicase (50 μg/ml, 20 pg M13 phage DNA); 41 ± 4 with ATP-ase/helicase (50 μg/ml, 50 pg M13 phage DNA); 20 ± 3.5 with ATP-ase/helicase (50 μg/ml, 100 pg M13 phage DNA); 9.5 ± 1.5 with ATP-ase/helicase (50 μg/ml, 200 pg M13 phage DNA); 58 ± 4 in the assay on ATP-ase/helicase (100 μg/ml, 5 pg M13 phage DNA); 50.5 ± 5 in the assay with ATP-ase/helicase (100 μg/ml, 20 pg M13 phage DNA). In addition, the “Radioactive fraction, low-molecular” value in the assay on ATP-ase/helicase (100 μg/ml, 50 pg M13 phage DNA) is recorded as 33 ± 3.5; in the assay on ATP-ase/helicase (setting [3]), 16 ± 1.5; with ATP-ase/helicase (setting [4]) it was 7.5 ± 2; in assay [2] (10 μg/ml, 20 pg M13 phage DNA), 84 ± 5; in assay [2] (10 μg/ml, 50 pg M13 phage DNA), 82.5 ± 8.5; in assay [2] (10 μg/ml, 200 pg M13 phage DNA) it was 55 ± 5. Also, the “Radioactive fraction, low-molecular” value was 27.5 ± 1.5 in assay [2] (10 μg/ml, 500 pg M13 phage DNA); 8 ± 1 in assay [2] (10 μg/ml, 800 pg M13 phage DNA); 78 ± 7 in assay [2] (50 μg/ml, 20 pg M13 phage DNA); 66 ± 7 in assay [2] (50 μg/ml, 50 pg M13 phage DNA); 49 ± 5 in assay [2] (50 μg/ml, 200 pg M13 phage DNA); 26 ± 2 in assay [2] (50 μg/ml, 500 pg M13 phage DNA). For the same compound, the “Radioactive fraction, low-molecular” value in assay [2] (50 μg/ml, 800 pg M13 phage DNA) amounted to 7.5 ± 1; in assay [2] (100 μg/ml, 20 pg M13 phage DNA), 64 ± 5; in assay [2] (100 μg/ml, 50 pg M13 phage DNA), 59 ± 6; in assay [2] (setting [4]), 42.5 ± 3.5; in assay [2] (setting [6]), 24.5 ± 3.5; in assay [2] (setting [7]), 7.5 ± 1. Besides, the figures for the “Relative inhibition of ATP-ase/helicase activity” value (in the assay with ATP-ase/helicase (setting [5]); in assay [2] (setting [5])) were “inhibits ATP-ase/helicase activity most of all” and “maximal inhibitory effect”, respectively.
As for `Nc1ccn([C@H]2CC[C@@H](CO)O2)c(=O)n1` [Zalzitabin], the “PCR (%) in Chronic HCV Infection” value is reported as 100% in the assay on hepatitis C virus (HCV) (Baseline (before treatment)), “**73.9* %” in the assay with hepatitis C virus (HCV) (month 1 (after treatment)), “**56.5* %” in the assay on hepatitis C virus (HCV) (setting [8]) and “**60.9* %” in the assay on hepatitis C virus (HCV) (setting [9]).
On to `C[C@]12C=CC(=O)C=C1CC[C@@H]1[C@@H]2[C@@H](O)C[C@@]2(C)[C@H]1CC[C@]2(O)C(=O)CO` [Prednisolone], for which, in the assay on hepatitis B virus (HBV) (Baseline (before treatment)), the “ALT in Severe HBV Infection” value came out at 1657.9 ± 96.5 U/L, the “Bilirubin in Severe HBV Infection” value came to 313.9 ± 62.6 µmol/L, the “HbsAg in Severe HBV Infection” value stood at 189.7 ± 20.4 ng/mL and the “PCR (%) in Severe HBV Infection” value is 100%. In the assay with hepatitis B virus (HBV) (month 1 (after treatment)), the “ALT in Severe HBV Infection” value was “**293.8 ± 18.8 U/L”, the “Bilirubin in Severe HBV Infection” value was “**86.9 ± 21.9 μmole/L”, the “HbsAg in Severe HBV Infection” value is reported as “**97.8 ± 18.6 ng/mL” and the “PCR (%) in Severe HBV Infection” value was “**66.7%”. Moreover, in the assay with hepatitis B virus (HBV) (setting [8]), the “ALT in Severe HBV Infection” value is listed as “**145.4 ± 15.5 U/L”, the “Bilirubin in Severe HBV Infection” value is recorded as “**31.4 ± 14.6 μmole/L”, the “HbsAg in Severe HBV Infection” value is recorded as “**87.7 ± 12.7 ng/mL” and the “PCR (%) in Severe HBV Infection” value is on record as “**66.7%”. In addition, in the assay on hepatitis B virus (HBV) (setting [9]), the “ALT in Severe HBV Infection” value is given as “**65.3 ± 15.7 U/L”, the “Bilirubin in Severe HBV Infection” value was “**26.84 ± 13.99 μmole/L”, the “HbsAg in Severe HBV Infection” value is reported as “**76.6 ± 15.4 ng/mL” and the “PCR (%) in Severe HBV Infection” value is recorded as “**53.3%”.
